Experimental findings from US11325936B2, “Sialidase inhibitors and preparation thereof” (The Regents of the University of California, priority 2017, dated 2022) are described below.

SMILES strings stand for the structures. Where two headings read alike, the source gives them in different places.

In test [1] the target is T1, PmST1 (Pasteurella multocida, UniProt Q15KI8). The experiment in a line: Sialidase inhibition assay (Example 7). In kind it is biochemical. Particulars: 1 mM of each inhibitor; substrate Neu5Acα2-3GalβpNP 0.3 mM; CMP 0.4 mM; pH 5.5; read-out: Percentage inhibition (%) against PmST1.
For test [2], the target named is T2, SpNanB (Streptococcus pneumoniae serotype 4, UniProt Q54727, E68D/K536E/K577E/N393D/S59P). The experiment in a line: Sialidase inhibition assay (Example 7). In kind it is biochemical. Particulars: pH 6, read-out: Percentage inhibition (%) against SpNanB.
Test [3] deals with T3, AuSialidase (Paenarthrobacter ureafaciens, UniProt Q5W7Q2).
T3 sequence (Q5W7Q2 39-990): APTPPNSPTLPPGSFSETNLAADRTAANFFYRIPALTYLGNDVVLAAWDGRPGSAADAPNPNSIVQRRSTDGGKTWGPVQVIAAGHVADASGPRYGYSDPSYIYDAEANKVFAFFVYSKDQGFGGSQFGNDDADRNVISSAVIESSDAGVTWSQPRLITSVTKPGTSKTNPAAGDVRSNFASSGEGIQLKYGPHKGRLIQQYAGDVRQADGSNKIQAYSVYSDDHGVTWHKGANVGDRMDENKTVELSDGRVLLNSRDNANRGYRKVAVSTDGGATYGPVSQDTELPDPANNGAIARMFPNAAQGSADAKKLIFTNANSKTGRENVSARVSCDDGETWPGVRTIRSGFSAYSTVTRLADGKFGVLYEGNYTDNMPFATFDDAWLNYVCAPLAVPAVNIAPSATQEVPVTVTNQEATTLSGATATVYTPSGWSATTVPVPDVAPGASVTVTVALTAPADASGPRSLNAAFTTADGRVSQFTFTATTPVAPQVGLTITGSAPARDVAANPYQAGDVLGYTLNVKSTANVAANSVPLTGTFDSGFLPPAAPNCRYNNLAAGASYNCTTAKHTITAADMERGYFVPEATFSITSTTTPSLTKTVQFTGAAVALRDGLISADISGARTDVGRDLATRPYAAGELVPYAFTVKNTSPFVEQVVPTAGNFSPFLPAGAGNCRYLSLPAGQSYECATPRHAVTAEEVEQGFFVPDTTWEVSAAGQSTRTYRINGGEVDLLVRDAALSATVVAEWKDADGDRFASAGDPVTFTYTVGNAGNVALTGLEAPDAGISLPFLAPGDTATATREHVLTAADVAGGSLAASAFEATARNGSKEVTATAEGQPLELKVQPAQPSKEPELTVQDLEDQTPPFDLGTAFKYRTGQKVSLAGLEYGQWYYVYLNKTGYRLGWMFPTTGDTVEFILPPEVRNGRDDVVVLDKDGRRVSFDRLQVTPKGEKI
The experiment in a line: Sialidase inhibition assay (Example 7). The settings on record: 1 mM of each inhibitor; substrate Neu5Acα2-3GalβpNP 0.3 mM; pH 5.5; read-out: Percentage inhibition (%) against AuSialidase. In kind it is biochemical, Arthrobacter ureafaciens.

For test [4], the system named is CpNanI. In kind it is biochemical, Clostridium perfringens. Particulars: 1 mM of each inhibitor; substrate Neu5Acα2-3GalβpNP 0.3 mM; pH 5.0.
The target of test [5] is T4, SpNanA (Streptococcus pneumoniae, UniProt P62575). Description: Sialidase inhibition assay (Example 7). In kind it is biochemical. The settings on record: pH 6, read-out: Percentage inhibition (%) against SpNanA.
Test [6] deals with T5, SpNanC (Streptococcus pneumoniae, UniProt A0A0H2UQE4). Description: Sialidase inhibition assay (Example 4). In kind it is biochemical. The settings on record: pH 6.5, read-out: Percentage inhibition (%) against SpNanC.
For test [7], the target named is T6, BiNanH2 (Bifidobacterium longum subsp. infantis, UniProt A0ACD7UU12). Description: Sialidase inhibition assay (Example 4). In kind it is biochemical. Particulars: pH 5, read-out: Percentage inhibition (%) against BiNanH2, 0.1 mM of each inhibitor, substrate Neu5Acα2-3GalβpNP 0.3 mM.
Test [8] addresses T7, VcSialidase (Vibrio cholerae serotype O1, UniProt P0C6E9). Description: Sialidase inhibition assay (Example 7). In kind it is biochemical. The settings on record: pH 5.5, read-out: Percentage inhibition (%) against VcSialidase.
The target of test [9] is T1, PmST1. The experiment in a line: Sialidase inhibition assay (Example 4). In kind it is biochemical. The settings on record: 0.1 mM of each inhibitor; substrate Neu5Acα2-3GalβpNP 0.3 mM; pH 5.5; read-out: Percentage inhibition (%) against PmST1. How it is done:
(§1) The assay conditions varied for different sialidases as described below: SpNanA (0.0015 μg), NaOAc buffer (100 mM, pH 6.0); SpNanB (0.003 μg), NaOAc buffer (100 mM, pH 6.0); SpNanC (0.02 μg), MES buffer (100 mM, pH 6.5); AuSialidase (1.0 mU), NaOAc buffer (100 mM, pH 5.5); CpNanI (2.0 mU), MES buffer (100 mM, pH 5.0); CpNanH (0.5 mU), MES buffer (100 mM, pH 5.0); VcSialidase (1.5 mU), NaCl (150 mM), CaCl2) (10 mM), NaOAc buffer (100 mM, pH 5.5); PmST1 (34.4 μg), NaOAc buffer (100 mM, pH 5.5); BiNanH2, NaOAc buffer (100 mM, pH 5.0); hNEU2 (22.0 μg), MES buffer (100 mM, pH 5.0). The reactions were incubated for 30 min at 37° C., and were stopped by adding CAPS buffer (N-cyclohexyl-3-aminopropane sulfonic acid, 40 μL, 0.5 M, pH 10.5). The amount of the para-nitrophenolate formed was determined by measuring the A405 nm Of the reaction mixtures using a microplate reader.
(§2) The percentage inhibitions were determined using a concentration of 0.1 mM of each inhibitor, with reactions without inhibitors as controls. […] The values of IC50 were calculated by the software Grafit 5.0.

The target in the next test is CpNanH (Clostridium perfringens, UniProt P10481). Description: biochemical. The settings on record: pH 5.0; read-out: Percentage inhibition (%) against CpNanH.
In test [10] the target is T2, SpNanB. The experiment in a line: Sialidase inhibition assay (Example 4). In kind it is biochemical. Particulars: pH 6, read-out: Percentage inhibition (%) against SpNanB.
Test [11] deals with T6, BiNanH2. The experiment in a line: Sialidase inhibition assay (Example 7). In kind it is biochemical. The settings on record: pH 5, read-out: Percentage inhibition (%) against BiNanH2.
Test [12] has as its target T5, SpNanC. The experiment in a line: Sialidase inhibition assay (Example 7). Particulars: pH 6.5, read-out: Percentage inhibition (%) against SpNanC.
The test system of test [13] is CpNanI. In kind it is biochemical, Clostridium perfringens. The settings on record: 0.1 mM of each inhibitor; substrate Neu5Acα2-3GalβpNP 0.3 mM; pH 5.0.
The target of test [14] is T3, AuSialidase. The experiment in a line: Sialidase inhibition assay (Example 4). In kind it is biochemical, Arthrobacter ureafaciens. The settings on record: pH 5.5, read-out: Percentage inhibition (%) against AuSialidase, 0.1 mM of each inhibitor, substrate Neu5Acα2-3GalβpNP 0.3 mM. Here is the method: as §1, §2
Test [15] deals with T4, SpNanA. Description: Sialidase inhibition assay (Example 4). In kind it is biochemical. Particulars: for inhibition at 100 µM: pH 6, read-out: Percentage inhibition (%) against SpNanA, 0.1 mM of each inhibitor, substrate Neu5Acα2-3GalβpNP 0.3 mM, pH 6.0.
For test [16], the target named is T7, VcSialidase. The experiment in a line: biochemical. The settings on record: pH 5.5, read-out: Percentage inhibition (%) against VcSialidase, 0.1 mM of each inhibitor, substrate Neu5Acα2-3GalβpNP 0.3 mM.
The target in the next test is hNEU2 (Homo sapiens, UniProt Q9Y3R4). The experiment in a line: Sialidase inhibition assay (Example 4). The settings on record: pH 5, 0.1 mM of each inhibitor, substrate Neu5Acα2-3GalβpNP 0.3 mM, read-out: Percentage inhibition (%) against hNEU2. In kind it is biochemical.
hNEU2, sequence (Q9Y3R4 whole entry): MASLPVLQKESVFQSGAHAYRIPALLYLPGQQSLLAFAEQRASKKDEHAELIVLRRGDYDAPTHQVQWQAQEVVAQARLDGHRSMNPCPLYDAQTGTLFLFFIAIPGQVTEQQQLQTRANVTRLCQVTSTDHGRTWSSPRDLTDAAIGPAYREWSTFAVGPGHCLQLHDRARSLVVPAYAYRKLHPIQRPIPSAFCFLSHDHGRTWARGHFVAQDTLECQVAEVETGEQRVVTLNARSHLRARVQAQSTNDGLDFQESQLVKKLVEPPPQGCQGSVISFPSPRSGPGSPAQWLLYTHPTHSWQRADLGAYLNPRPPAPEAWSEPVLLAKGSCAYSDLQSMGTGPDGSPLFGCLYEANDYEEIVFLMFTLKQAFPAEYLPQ

T6 sequence (A0ACD7UU12 entry or part of it): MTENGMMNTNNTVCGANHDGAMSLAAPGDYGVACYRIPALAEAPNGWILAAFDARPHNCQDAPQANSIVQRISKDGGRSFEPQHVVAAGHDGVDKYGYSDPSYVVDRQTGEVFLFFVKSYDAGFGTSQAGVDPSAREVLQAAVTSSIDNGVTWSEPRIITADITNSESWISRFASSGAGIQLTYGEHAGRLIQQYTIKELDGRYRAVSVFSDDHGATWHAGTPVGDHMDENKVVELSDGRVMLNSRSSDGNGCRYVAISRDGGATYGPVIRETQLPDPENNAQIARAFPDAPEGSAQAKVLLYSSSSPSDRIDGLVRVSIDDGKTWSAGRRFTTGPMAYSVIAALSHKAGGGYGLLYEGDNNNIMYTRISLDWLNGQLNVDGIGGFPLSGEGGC
T1 sequence (Q15KI8 entry or part of it): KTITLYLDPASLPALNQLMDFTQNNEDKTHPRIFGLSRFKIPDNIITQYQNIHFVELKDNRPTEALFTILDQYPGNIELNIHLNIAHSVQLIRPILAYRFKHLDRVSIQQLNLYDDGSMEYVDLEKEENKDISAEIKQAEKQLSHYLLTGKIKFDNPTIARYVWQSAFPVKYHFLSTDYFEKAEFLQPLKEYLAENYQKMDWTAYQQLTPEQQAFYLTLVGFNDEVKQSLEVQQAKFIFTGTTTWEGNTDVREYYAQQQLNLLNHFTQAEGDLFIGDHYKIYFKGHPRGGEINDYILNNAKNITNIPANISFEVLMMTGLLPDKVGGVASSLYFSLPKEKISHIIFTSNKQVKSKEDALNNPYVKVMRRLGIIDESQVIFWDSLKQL
T7 sequence (P0C6E9 25-781): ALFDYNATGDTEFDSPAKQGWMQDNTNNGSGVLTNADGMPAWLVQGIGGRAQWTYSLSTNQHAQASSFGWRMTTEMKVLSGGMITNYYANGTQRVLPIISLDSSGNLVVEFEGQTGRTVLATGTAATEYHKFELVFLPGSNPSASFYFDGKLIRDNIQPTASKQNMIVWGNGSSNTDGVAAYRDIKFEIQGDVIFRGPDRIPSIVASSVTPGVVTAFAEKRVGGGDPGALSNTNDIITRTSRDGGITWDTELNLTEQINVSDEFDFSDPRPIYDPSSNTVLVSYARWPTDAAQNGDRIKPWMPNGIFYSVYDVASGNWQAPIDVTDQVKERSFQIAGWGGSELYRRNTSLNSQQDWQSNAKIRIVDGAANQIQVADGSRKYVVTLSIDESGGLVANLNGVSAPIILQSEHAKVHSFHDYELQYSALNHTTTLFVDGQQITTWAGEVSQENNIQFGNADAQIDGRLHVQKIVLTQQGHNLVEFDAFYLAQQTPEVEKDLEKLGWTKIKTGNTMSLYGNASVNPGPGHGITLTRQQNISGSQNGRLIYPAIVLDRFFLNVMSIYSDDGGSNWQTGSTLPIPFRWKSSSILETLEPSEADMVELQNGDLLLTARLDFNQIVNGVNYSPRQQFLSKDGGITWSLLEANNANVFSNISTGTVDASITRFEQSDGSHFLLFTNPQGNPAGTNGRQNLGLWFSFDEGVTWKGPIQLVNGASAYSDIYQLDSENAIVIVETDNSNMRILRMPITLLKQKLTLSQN
CpNanH, sequence (P10481 whole entry, looked up): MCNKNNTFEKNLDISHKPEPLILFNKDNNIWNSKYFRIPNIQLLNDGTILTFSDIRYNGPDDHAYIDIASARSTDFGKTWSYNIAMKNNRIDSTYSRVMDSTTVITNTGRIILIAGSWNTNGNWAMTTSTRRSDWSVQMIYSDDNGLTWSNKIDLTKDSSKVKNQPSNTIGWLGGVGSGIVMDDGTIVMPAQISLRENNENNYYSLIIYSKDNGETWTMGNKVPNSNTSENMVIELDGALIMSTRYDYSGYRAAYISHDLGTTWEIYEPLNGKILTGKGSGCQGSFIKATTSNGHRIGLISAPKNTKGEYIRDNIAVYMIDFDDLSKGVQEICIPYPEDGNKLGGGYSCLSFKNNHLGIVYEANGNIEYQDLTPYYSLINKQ
T4 sequence (P62575 54-1006): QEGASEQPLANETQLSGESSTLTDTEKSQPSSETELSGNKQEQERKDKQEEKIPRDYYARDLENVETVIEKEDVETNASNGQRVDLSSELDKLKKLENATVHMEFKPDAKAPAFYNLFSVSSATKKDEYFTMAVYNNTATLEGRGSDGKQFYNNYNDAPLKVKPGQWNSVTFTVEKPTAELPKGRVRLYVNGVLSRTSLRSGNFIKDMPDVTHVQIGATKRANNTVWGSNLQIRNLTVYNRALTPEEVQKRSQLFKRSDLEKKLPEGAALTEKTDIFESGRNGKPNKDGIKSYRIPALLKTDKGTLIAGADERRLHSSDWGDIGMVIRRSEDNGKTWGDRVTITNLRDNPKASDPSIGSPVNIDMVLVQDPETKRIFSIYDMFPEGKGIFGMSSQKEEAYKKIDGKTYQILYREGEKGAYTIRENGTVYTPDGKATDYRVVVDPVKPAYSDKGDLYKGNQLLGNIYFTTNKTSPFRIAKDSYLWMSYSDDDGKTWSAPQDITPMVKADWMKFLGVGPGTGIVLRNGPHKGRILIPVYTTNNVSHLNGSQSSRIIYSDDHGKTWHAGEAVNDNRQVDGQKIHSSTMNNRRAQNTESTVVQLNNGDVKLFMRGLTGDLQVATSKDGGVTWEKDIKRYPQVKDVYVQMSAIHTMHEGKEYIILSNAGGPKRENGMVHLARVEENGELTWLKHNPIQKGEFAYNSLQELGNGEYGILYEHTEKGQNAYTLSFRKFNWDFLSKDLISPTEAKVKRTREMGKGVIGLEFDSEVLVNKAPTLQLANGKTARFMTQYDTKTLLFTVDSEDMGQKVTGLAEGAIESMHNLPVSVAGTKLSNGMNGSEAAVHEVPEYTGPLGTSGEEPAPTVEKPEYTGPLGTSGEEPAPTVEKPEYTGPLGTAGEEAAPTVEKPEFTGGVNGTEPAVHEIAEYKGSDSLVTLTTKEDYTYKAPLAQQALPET
T5 sequence (A0A0H2UQE4 entry or part of it): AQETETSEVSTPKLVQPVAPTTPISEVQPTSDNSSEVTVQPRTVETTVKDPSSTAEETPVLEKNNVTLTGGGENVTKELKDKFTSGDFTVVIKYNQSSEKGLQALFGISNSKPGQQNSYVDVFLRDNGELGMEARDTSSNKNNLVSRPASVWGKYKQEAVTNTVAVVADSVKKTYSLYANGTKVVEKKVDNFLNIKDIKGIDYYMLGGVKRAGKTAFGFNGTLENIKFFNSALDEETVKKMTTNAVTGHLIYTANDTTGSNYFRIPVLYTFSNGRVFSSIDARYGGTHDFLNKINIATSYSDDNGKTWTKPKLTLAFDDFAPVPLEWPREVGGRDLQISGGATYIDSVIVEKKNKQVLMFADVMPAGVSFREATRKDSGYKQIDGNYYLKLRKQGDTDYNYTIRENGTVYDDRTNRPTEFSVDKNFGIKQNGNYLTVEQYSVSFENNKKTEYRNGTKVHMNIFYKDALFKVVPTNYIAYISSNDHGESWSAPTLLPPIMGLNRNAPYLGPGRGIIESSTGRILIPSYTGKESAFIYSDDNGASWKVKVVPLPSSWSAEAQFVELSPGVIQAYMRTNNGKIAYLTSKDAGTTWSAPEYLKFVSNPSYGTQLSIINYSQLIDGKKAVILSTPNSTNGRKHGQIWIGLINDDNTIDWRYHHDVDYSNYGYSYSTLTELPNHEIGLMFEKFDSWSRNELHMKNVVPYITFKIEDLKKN
T2 sequence (Q54727 30-697 S59P/E68D/N393D/K536E/K577E): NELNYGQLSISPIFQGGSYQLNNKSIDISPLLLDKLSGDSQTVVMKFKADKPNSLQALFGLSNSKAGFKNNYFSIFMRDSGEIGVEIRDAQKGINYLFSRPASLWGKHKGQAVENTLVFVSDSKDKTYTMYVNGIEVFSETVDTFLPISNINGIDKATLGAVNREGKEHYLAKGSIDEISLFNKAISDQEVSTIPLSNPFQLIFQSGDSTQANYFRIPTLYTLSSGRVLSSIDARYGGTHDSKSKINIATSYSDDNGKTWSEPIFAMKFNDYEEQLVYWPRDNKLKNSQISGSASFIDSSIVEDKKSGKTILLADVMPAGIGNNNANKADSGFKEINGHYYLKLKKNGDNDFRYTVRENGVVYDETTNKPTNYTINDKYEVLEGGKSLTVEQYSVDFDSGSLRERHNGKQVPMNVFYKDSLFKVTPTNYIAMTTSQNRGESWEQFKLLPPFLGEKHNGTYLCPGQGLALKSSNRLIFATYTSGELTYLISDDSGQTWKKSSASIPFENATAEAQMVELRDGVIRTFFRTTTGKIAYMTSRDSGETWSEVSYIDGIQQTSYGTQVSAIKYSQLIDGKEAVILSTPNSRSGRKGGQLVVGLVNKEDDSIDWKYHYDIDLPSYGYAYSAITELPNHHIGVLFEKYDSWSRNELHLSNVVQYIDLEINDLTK

Turning to `CC(=O)N[C@H]1[C@H]([C@H](O)[C@H](O)CO)OC(C(=O)O)=C[C@@H]1O` [compound 6, 5-Acetamido-2,6-anhydro-3,5-dideoxy-D-glycero-D-galacto-non-2-enonic acid, reference compound], the inhibition (commonly the relative decrease from the control value, in per cent) at 1000 µM at PmST1 [1] came to 15.8 ± 0.1%; at SpNanB [2], 26.1 ± 1%; on AuSialidase [3] it was 99.6 ± 0.6%; on SpNanA [5], 98.9 ± 1.8%; at VcSialidase [8], 98.8 ± 0.1%; on BiNanH2 [11] it was 95.3 ± 0.2%. Moreover, the inhibition at 1000 µM on SpNanC [12] is 9 ± 3.5%. The “Percentage inhibition (%) against CpNanI” value in the test with CpNanI [4] is 93.3 ± 3.8%. The inhibition at 100 µM is 11% on SpNanC [6]; > 50% on BiNanH2 [7]; 2% at PmST1 [9]; 2% at CpNanH; 4% at SpNanB [10].
Consider `CC(=O)N[C@@H]1C(O)C=C(C(=O)O)OC1C[C@H](O)CO` (stereo partly drawn) [compound 10, 5-Acetamido-2,6-anhydro-3,5,7-trideoxy-D-glycero-D-galacto-non-2-enonic acid], for which the “Percentage inhibition (%) against CpNanI” value in the test with CpNanI [13] is 57%. Further, the inhibition at 100 µM at AuSialidase [14] came out at 85%; at SpNanA [15], 89%; on SpNanC [6], 5%; at VcSialidase [16], 40%; at BiNanH2 [7], 30%; at hNEU2, 42%. Also, the inhibition at 100 µM at PmST1 [9] was found to be 15%; on CpNanH, 11%; on SpNanB [10], 2%. Moreover, half-maximal inhibition at SpNanA [15] (IC50) required 10.7 ± 0.4 µM.
As for `CCCCC(=O)NC[C@@H](O)[C@@H](O)[C@@H]1OC(C(=O)O)=C[C@H](O)[C@H]1NC(C)=O` [compound 12, 5-Acetamido-2,6-anhydro-3,5,9-trideoxy-9-valeramido-D-glycero-D-galacto-non-2-enonic acid], the “Percentage inhibition (%) against CpNanI” value in the test with CpNanI [13] came out at 40%. The inhibition at 100 µM came out at 40% on AuSialidase [14]; 85% at SpNanA [15]; 11% at SpNanC [6]; 43% on VcSialidase [16]; 71% at BiNanH2 [7]; 19% on hNEU2. Besides, the inhibition at 100 µM at PmST1 [9] worked out at 8%; at CpNanH, 3%; at SpNanB [10], 3%. Moreover, the IC50 (usually the point on the concentration scale where inhibition reaches its midpoint) against SpNanA [15] was found to be 10.5 ± 0.5 µM.
On to `CC(=O)N[C@@H]1C(O)C=C(C(=O)O)OC1[C@H](O)[C@H](O)CNC(=O)C1CC1` (stereo partly drawn) [compound 13, 5-Acetamido-2,6-anhydro-9-cyclopropylcarboxamido-3,5,9-trideoxy-D-glycero-D-galacto-non-2-enonic acid], for which the “Percentage inhibition (%) against CpNanI” value in the test with CpNanI [13] came to 51%. The inhibition at 100 µM on AuSialidase [14] stood at 61%; on SpNanA [15] it was 91%; at SpNanC [6], 16%; on VcSialidase [16], 40%; at BiNanH2 [7], 78%; at hNEU2 it was 17%. The values for the inhibition at 100 µM on PmST1 [9], on CpNanH and at SpNanB [10] were 3%, 7% and 2%, respectively. This compound registered an IC50 at SpNanA [15] of 6.8 ± 0.2 µM.
`O=C(Cc1ccccc1)N[C@H]1[C@H]([C@H](O)[C@H](O)CO)OC(C(=O)O)=C[C@@H]1O` [compound 15, 2,6-Anhydro-3,5-dideoxy-5-phenylacetamido-D-glycero-D-galacto-non-2-enonic acid]: in the test on CpNanI [13], the “Percentage inhibition (%) against CpNanI” value is 19%. In addition, the inhibition at 100 µM is 13% at AuSialidase [14]; 2% at SpNanA [15]; 12% at SpNanC [6]; 5% on VcSialidase [16]; 17% on BiNanH2 [7]; 81% at hNEU2. The inhibition at 100 µM on PmST1 [9] came to 8%; at CpNanH, 8%; on SpNanB [10], 5%.
